# Source: patent publication US20150136638A1, “METHOD FOR PREPARING A SYRUPY PRODUCT COMPRISING VITAMINS” (LaboratoiresUrgo, priority 2012, published 2015)
# Experiment: Assay of the vitamins contained in a randomly taken bottle of the syrupy product of Example 2 (yield = actual / theoretical amount x 100)
# Type: physicochemical
# Conditions: syrupy product of Example 2, after preparation and packaging under inert atmosphere; actual amount of vitamin in the bottle divided by theoretical amount x 100
# Protocol: The process can be broken down into the following steps: • the two preparation tanks (PT1 and PT2) and the pipe connecting them are inerted with an overpressure of inert gas at 0.4 bar for 300 sec.; • the sugar syrup is introduced into the main preparation tank (PT1); • the sugar syrup is left to stir with bubbling of nitrogen with a pressure of 0.4 bar and a flow rate of 4 Nm^3/h for 4 hours; • the sugar syrup is heated at 50° C. by means of the double jackets surrounding tank PT1; • the pH of the sugar syrup is adjusted to 9.5 by introducing the sodium hydroxide and the ascorbic acid; • the secondary preparation tank (PT2) is preheated at 50° C. by means of the double jackets surrounding tank PT2; • the Montanox 80 and the following fat-soluble vitamins: vitamin A, vitamin D3, vitamin E, are introduced into the secondary preparation tank (PT2); • the mixture in tank PT2 is left to stir at 50° C. and with bubbling of nitrogen for 60 minutes; • the content of tank PT2 is transferred to tank PT1 via the pipe connecting them; • tank PT2 is rinsed several times with water, at 50° C., purified and deoxygenated beforehand, and the rinsing water is then transferred to tank PT1 via the pipe connecting PT2 to PT1; • the content of tank PT1 is left to stir at 50° C. and with bubbling of nitrogen for 60 minutes; • the temperature of the content of tank PT1 is reduced to 35° C.; • the following water-soluble vitamins: vitamin B1, vitamin B2, vitamin B3, vitamin B5, vitamin B6, vitamin B8, vitamin B12 and vitamin C, and also the plum flavoring, are introduced into tank PT1; • the reservoirs which contained the vitamins are rinsed with purified water and the rinsing water is added to tank PT1; • the content of tank PT1 is left to stir at 35° C. and with bubbling of nitrogen for 120 minutes; • the dehydrated glucose is introduced into tank PT1 via the powder-transferring system; • purified and deoxygenated water is introduced into tank PT1; • the content of tank PT1 is left to stir at 35° C. and with bubbling of nitrogen for 60 minutes; • the piping between tank PT1 and the storage tank is inerted, and the storage tank is inerted with a nitrogen pressure at 0.4 bar and a flow rate of 1 Nm^3/h for 300 seconds; • the content of tank PT1 is transferred to the storage tank passing through the mixer into which nitrogen is injected, in contraflow to the passage of the liquid, with a pressure of 0.4 bar and a flow rate of 8 Nm^3/h; • the syrupy product which gradually accumulates in the storage tank is kept stirring at 150 rpm and with bubbling of nitrogen with a pressure of 0.4 bar and a flow rate of 2 Nm^3/h; • the pipes between the storage tank and the bottle-filling machine, and also the packaging hopper, are inerted with nitrogen at a pressure of 0.3 bar for 600 seconds; • the syrupy product is transferred to the packaging hopper and the content is kept at a nitrogen pressure of 0.2 bar; • the syrupy product is gradually transferred to the bottle-filling machine; • the bottles are inerted with nitrogen at 1 bar for 100 milliseconds, then they are filled with a volume of syrupy product metered by a positive-displacement pump and they are kept under a nitrogen atmosphere until they are closed by means of a crimped valve.
# One of the bottles produced is taken randomly and the vitamins contained in this bottle are assayed. The yields are calculated by dividing the actual amount of vitamins that is contained in the bottle by the theoretical amount of vitamins that should be in the bottle, and by multiplying the result by 100.
row,Molecule,YIELD (individual vitamin ratio)
1,"Cc1ncc(CO)c(CO)c1O [Vitamin B6, pyridoxine]",98.6%
2,"O=C(O)c1cccnc1 [Vitamin B3, nicotinic acid]",98.8%
3,"Cc1cc2nc3c(=O)[nH]c(=O)nc-3n(C[C@H](O)[C@H](O)[C@H](O)CO)c2cc1C [Vitamin B2, riboflavin]",98.6%

# Continued, values first:
row,YIELD (individual vitamin ratio),Molecule
1,100%,"CC(C)(CO)[C@@H](O)C(=O)NCCC(=O)O [Vitamin B5, pantothenic acid]"
2,100%,Vitamin E
3,100%,"CC1=C(/C=C/C(C)=C/C=C/C(C)=C/CO)C(C)(C)CCC1 [Vitamin A, retinol]"
